Source: BindingDB's records for doi:10.1021/jm00387a019 (1987)
Each block holds one compound with its values, some of them ahead of it.

Target: Voltage-dependent L-type calcium channel subunit alpha-1C (Sus scrofa)
Test: Inhibition of [3H]nitrendipine binding to L-type calcium channel dihydropyridine site of porcine cardiac sarcolemma membrane vesicles

SMILES: CCOC(=O)[C@@H]1[C@H]2/C(=C(\O)OCC)C(C)=N[C@]1(C)Sc1cc([N+](=O)[O-])ccc12
- Ki: 3000 nM

SMILES: CCOC(=O)[C@H]1[C@H]2/C(=C(\O)OCC)C(C)=N[C@]1(C)Sc1c2cccc1[N+](=O)[O-]
- Ki: 250 nM

SMILES: CCOC(=O)[C@H]1[C@H]2/C(=C(\O)OCC)C(C)=N[C@]1(C)Sc1ccc([N+](=O)[O-])cc12
- Ki: 650 nM

SMILES: CCOC(=O)[C@@H]1[C@H]2/C(=C(\O)OCC)C(C)=N[C@]1(C)Sc1ccccc12
- Ki: 500 nM

SMILES: CCOC(=O)[C@@H]1[C@H]2/C(=C(\O)OCC)C(C)=N[C@]1(C)Sc1c2cccc1[N+](=O)[O-]
- Ki: 6000 nM

- Ki: 80 nM
SMILES: CCOC(=O)C1=C(C)N=C(C)C(=C(O)OCC)C1c1cc([N+](=O)[O-])ccc1SC (centres undefined)

SMILES: CCOC(=O)[C@@H]1[C@H]2/C(=C(\O)OCC)C(C)=N[C@]1(C)Sc1ccc([N+](=O)[O-])cc12
- Ki: 30 nM

SMILES: CCOC(=O)[C@H]1[C@H]2/C(=C(\O)OCC)C(C)=N[C@]1(C)Sc1ccccc12
- Ki: 5000 nM

SMILES: CCOC(=O)[C@H]1[C@H]2/C(=C(\O)OCC)C(C)=N[C@]1(C)Sc1cc([N+](=O)[O-])ccc12
- Ki: 5000 nM
